Common to all, as to assay type: cell-based
Test [1] has as its system Mycosphaerella arachidis (syn. Cercospora arachidicola). The experiment in a line: Mycosphaerella arachidis (syn. Cercospora arachidicola) growth inhibition in nutrient broth (microtiter plate, photometric). The settings on record: approximately 5-6 days. How it is done:
Brown leaf spot of groundnut (peanut): Conidia of the fungus from cryogenic storage were directly mixed into nutrient broth (potato dextrose broth). After placing a (DMSO) solution of the test compounds into a microtiter plate (96-well format) the nutrient broth containing the fungal spores was added. The test plates were incubated at 24° C. and the inhibition of growth was determined photometrically after approximately 5-6 days at 620 nm. Two replicates per treatment were evaluated

The subject of a further test is Gaeumannomyces graminis. The experiment in a line: Gaeumannomyces graminis growth inhibition in nutrient broth (microtiter plate, photometric). The settings on record: 48 hours. The protocol:
Mycelial fragments of the fungus from cryogenic storage were directly mixed into nutrient broth (potato dextrose broth). After placing a (DMSO) solution of the test compounds into a microtiter plate (96-well format) the nutrient broth containing the fungal spores was added. The test plates were incubated at 24° C. and the inhibition of growth was determined photometrically after 48 hours at 620 nm. Two replicates per treatment were evaluated.

The subject of another test is Septoria tritici. The experiment in a line: Septoria tritici (leaf blotch) growth inhibition in nutrient broth (microtiter plate, photometric). To be noted: 72 hours. The protocol: Conidia of the fungus from cryogenic storage were directly mixed into nutrient broth (potato dextrose broth). After placing a (DMSO) solution of the test compounds into a microtiter plate (96-well format) the nutrient broth containing the fungal spores was added. The test plates were incubated at 24° C. and the inhibition of growth was determined photometrically after 72 hours. Two replicates per treatment were evaluated.

Molecules are shown by their SMILES.

On to `Cn1cc(C(=O)Nc2cccc3c2C2CCC3C2=C(Cl)Cl)c(C(F)F)n1` (centres unmarked) [C-IIIA], for which the Observed control % in test [1] (C-IIIA 0.0156 ppm alone) was found to be 20.0%; in test [1] (C-IIIA 0.0313 ppm alone) it was 90.0%.
As to `CO/C=C(/C(=O)OC)c1ccccc1Oc1cc(Oc2ccccc2C#N)ncn1` [azoxystrobin, Azoxystrobin], the Observed control % is listed as 0.0% in the test on Gaeumannomyces graminis (azoxystrobin 0.0625 ppm alone); 20.0% in the test with Gaeumannomyces graminis (azoxystrobin 0.1250 ppm alone); 20.0% with Gaeumannomyces graminis (azoxystrobin 0.2500 ppm alone); 50.0% in the test on Gaeumannomyces graminis (azoxystrobin 0.5000 ppm alone); 50.0% with Gaeumannomyces graminis (azoxystrobin 1.0000 ppm alone); 50.0% in the test on Gaeumannomyces graminis (azoxystrobin 2.0000 ppm alone).
Consider `CC(C1CC1)C(O)(Cn1cncn1)c1ccc(Cl)cc1` (centres unmarked) [cypropconazole, Cyproconazole], for which the Observed control % with Septoria tritici (cypropconazole 0.0625 ppm alone) is listed as 0.0%; in the test on Septoria tritici (cypropconazole 0.1250 ppm alone), 0.0%; in the test with Septoria tritici (cypropconazole 0.2500 ppm alone), 0.0%; with Septoria tritici (cypropconazole 0.5000 ppm alone), 70.0%; in the test on Septoria tritici (cypropconazole 1.0000 ppm alone) it was 90.0%; in the test on Septoria tritici (cypropconazole 2.0000 ppm alone), 90.0%.

Values taken from patent US9439431B2, “Pesticidal mixtures comprising isoxazoline derivatives” (Syngenta Participations AG, priority 2011, dated 2016).
